Reference: patent US20130079287A1, “CAFFEOYLALPHANEOENDORPHIN PEPTIDE DERIVATIVE AND USE THEREOF AS ANTI-ITCHING AND ANTI-ATOPIC AGENTS” (priority 2011, published 2013)
Values joined by “and” are separate entries in the source; they are usually repeats but may differ in a detail not shown here. Equal values may be shown once. Marks after values point to notes of the source that are not given here. Where a SMILES comes first, the peptide text is derived from it. Where no end group is shown, it is not given here. The star is where a group is joined. Caffeoyl = O=C(/C=C/c1ccc(O)c(O)c1)*

Experiments:
[1] = Physical stability test under alternating temperature; assay type: physicochemical; conditions: alternating temperature 4/20/40° C. at 8 h interval, up to 60 days, naked eye
Description: The physical stability under the condition of severe alternating temperature is an essential factor in the terms of the product property to be exposed to various external atmospheres in the case of cosmetics. The caffeoylalphaneoendorphin peptide derivative prepared from Example 1 has an increased stability to oxidation rather than that of caffeic acid in an aqueous solution. In order to confirm the increased physical stability, it was stored under the condition of alternating temperature for certain period time, and then its degradation degree was measured.
Firstly, 10,000 ppm concentration of caffeoylalphaneoendorphin peptide derivative aqueous solution was placed under the conditions of alternating temperatures, that is, low temperature (4° C.), room temperature (20° C.), and high temperature (40° C.) that were repeated at an interval of 8 hours, and then the physical stability was measured by the naked eye and HPLC Analysis for 30 days, 60 days, and 90 days.

[2] = tested on: peptidase derived from the cell disruption solution of keratinocyte; experiment: Stability to peptidase, cell disruption solution of keratinocyte; conditions: 10,000 ppm, 37° C., 6 hours
Description: (§1) After culturing at 37° C. for 6 hours, the residual contents were analyzed, and the existing contents were compared and evaluated on a percentage (%) to the initial existing contents.

[3] = tested on: peptidase derived from the cell disruption solution of fibroblast; experiment: Stability to peptidase, cell disruption solution of fibroblast; conditions: 10,000 ppm, 37° C., 6 hours
Description: as §1

NZW Rabbit skins = experiment: Skin irritation safety test (topical toxicity); assay type: in vivo, New Zealand White-Rabbit; parameters: key to Erythema & Eschar score: 0: Absolutely no erythema; 1: Very light erythema (barely identifiable level with the naked eye); 2: Obvious erythema; 3: A little serious erythema; 4: Serious erythema (carrot color) and crust formation; key to clinical signs: —: Normal; conditions: for clinical signs: female rabbit; for Edema score, Average / Edema score, Sum / Erythema & Eschar score, Average / Erythema & Eschar score, Sum: 6 animals
Description: In order to confirm the safety of caffeoyl peptide derivative according to the present invention to a human body skin when applying besides a skin that is an expected first human body application method, a topical toxicity skin irritation safety that is pre-clinical test method of pharmaceuticals was verified. The safety verification was performed by asking to Korea Research Institute of Chemical Technology that is an approved GLP Certificate Authority; the maximum application concentration range to skin irritation during topical toxicity was set at 10 mg/ml concentration, and then it was tested that irritant to a skin at the above concentration was not existed. For the above test, at least 6 of young and healthy white rabbits (New Zealand White-Rabbit, 2.0˜3.0 kg) were used. After selecting only healthy rabbits through observing a general symptom every day for 5 days during an accommodating period from an obtaining day, hairs of the abdominal regions of the selected rabbits was shaved away and then 6 rabbits with normal skins were used for test. […] An keeping environment was simply as follows: the test was performed in a rabbit keeping room in the institute by setting the temperature of 22° C., the relative humidity of 50%, a number of ventilation of 10˜15 number/hr, lighting of 12 h lights-on/12 h lights-off (08:00˜20:00), an intensity of illumination of 150˜300 Lux. For monitoring of keeping environment, whole humidity in an animal room was measured by an auto-measurer and environment conditions, such as, an intensity of illumination were regularly measured during a test period. As a result of environment measurement in an animal room, there was no change to affect to the test. The animals were kept individually in a stainless keeping box (380×480×300 mm, JungDo Industry) during accommodation, inspection, and observation periods. Feeds that was feeds for Rabbits, experiment animals, supplied from Cargillagripurina Cor. (Chonbuk, Gunsan-si Soyong dong 56-4) was freely taken by the animals, and water that was a filtered water through UV irradiation was freely taken by using a water bottle. In order to confirm the contaminant in the feeds and water, the contaminant of feeds was confirmed by receiving the feed report card according to regular test of manufacturer from a feeds supplier, and the contaminant of water was confirmed through the regular test according to applicable standard working water procedure (SOPs) of the institute.
The caffeoylalphaneoendorphin peptide derivative that was a test material prepared from Example 1 was dissolved in a concentration of 10 mg/ml (10,000 ppm), and then 0.5 ml per each animal was used by using the following method. […] The abraded skins were made to have a scratch without blood by using a needle end of syringe so that the horny layer of the skin was damaged, but the corium of the skin was not damaged. After the test materials were applied to one site of abraded skins and one site of intact skins, the sites were occlusive-patched with non-irritative tape and Coban for 24 hours. Control regions were applied with sterilized gauze wetted with sterilized distilled water by using the same method as the above (see FIG. 4).
In order to observe as to whether skin irritation was occurred, a change of general symptoms and as to whether animals were killed were observed during 72 hours after completing the application of test materials as the observation of general symptoms. In addition, the body weights per individual were measured immediately before applying the test materials and at 72 hours after applying the test materials. […] The evaluation of skin response and decision of irritant were performed based on the evaluation table of skin response as disclosed in the following Table 1. The decision of irritant content to the result was performed according to a calculation method of P.I.I. (Primary Irritation Index) by Draize, which is well used, generally (see Table 2).

[4] = test sites, abraded skin, 24 hour
[5] = test sites, abraded skin, 72 hour
[6] = test sites, intact skin, 24 hour
[7] = test sites, intact skin, 72 hour

With `O=C(O)/C=C/c1ccc(O)c(O)c1` [caffeic acid] the “acidification of aqueous solution (change of transparency)” value [1] was “serious acidification”.
With YGGFLRKYPK [alphaneoendorphin] the degradation by peptidase [2] was “considerably degraded” and the degradation by peptidase [3] was “considerably degraded”.
With `CC(C)C[C@H](NC(=O)[C@H](Cc1ccccc1)NC(=O)CNC(=O)CNC(=O)[C@H](Cc1ccc(O)cc1)NC(=O)/C=C/c1ccc(O)c(O)c1)C(=O)N[C@@H](CCCNC(=N)N)C(=O)N[C@@H](CCCCN)C(=O)N[C@@H](Cc1ccc(O)cc1)C(=O)N1CCC[C@H]1C(=O)N[C@@H](CCCCN)C(=O)O` [Caffeoyl (R1, R2, and R5 are hydrogen, and R3 and R4 are hydroxy)-alphaneoendorphin Peptide Derivative] (Caffeoyl-YGGFLRKYPK-OH) the degradation by peptidase [2] was “almost not degraded”, the “increase of existing contents versus alphaneoendorphin” value ([2]; HPLC) was 6.1±1.3 times and the degradation by peptidase [3] was “almost not degraded”. For the same compound, the “increase of existing contents versus alphaneoendorphin” value ([3]; HPLC) was 5.9±2.1 times, the Body weights (NZW Rabbit skins; 0 hours (immediately before applying), per animal) was 2237.2 g and 2511.9 g and 2684.9 g and 2408.4 g and 2478.1 g and 2347.3 g and the “changes of body weights of all animals” value (NZW Rabbit skins; 0 to 72 hours) was “normally increased”. For the same compound, the Body weight gains (NZW Rabbit skins; 0 to 72 hours, per animal) was 76.2 g and 119.5 g and 103.1 g and 88.3 g and 133.6 g and 107.1 g, the “toxicity in skin irritation test of topical toxicity” value (NZW Rabbit skins; 10 mg/ml) was “no toxicity” and the “Irritant Evaluation by P.I.I.” value (NZW Rabbit skins; 10 mg/ml applied over NZW Rabbit skins) was “none irritant”. The clinical signs (NZW Rabbit skins; 10 mg/ml, 0.5 ml per animal, 0 hours after application, per animal) was “—”, the clinical signs (NZW Rabbit skins; 10 mg/ml, 0.5 ml per animal, 24 hours after application, per animal) was “—” and the clinical signs (NZW Rabbit skins; 10 mg/ml, 0.5 ml per animal, 48 hours after application, per animal) was “—”. For the same compound, the clinical signs (NZW Rabbit skins; 10 mg/ml, 0.5 ml per animal, 72 hours after application, per animal) was “—”, the “Mortality (Number of dead animals/Number of total animals)” value (NZW Rabbit skins; 10 mg/ml, 0.5 ml per animal, female rabbits, 72 hours) was 0/6^a and the Body weights (NZW Rabbit skins; 72 hours after application, per animal) was 2313.4 g and 2631.4 g and 2788.0 g and 2496.7 g and 2611.7 g and 2454.4 g. For the same compound, the “death or unusual symptoms related to the application” value (NZW Rabbit skins; during the test period) was “no death or unusual symptoms”, the “P.I.I (Primary Irritation Index)” value (NZW Rabbit skins; test sites, 10 mg/ml, (Sum or mean at 24 and 72 hrs)/4) was 0.0 and the “Edema score, Average” value (NZW Rabbit skins; [4]) was 0. For the same compound, the “Edema score, Sum” value (NZW Rabbit skins; [4]) was 0, the “Erythema & Eschar score, Average” value (NZW Rabbit skins; [4]) was 0 and the “Erythema & Eschar score, Sum” value (NZW Rabbit skins; [4]) was 0. The “Erythema & Eschar score” value (NZW Rabbit skins; test sites, abraded skin, 24 hour, per animal) was 0, the “Edema score, Average” value (NZW Rabbit skins; [5]) was 0 and the “Edema score, Sum” value (NZW Rabbit skins; [5]) was 0. The “Erythema & Eschar score, Average” value (NZW Rabbit skins; [5]) was 0, the “Erythema & Eschar score, Sum” value (NZW Rabbit skins; [5]) was 0 and the “Erythema & Eschar score” value (NZW Rabbit skins; test sites, abraded skin, 72 hour, per animal) was 0. For the same compound, the “Sum of Averages” value (NZW Rabbit skins; test sites, erythema & eschar and edema, 24 and 72 hour) was 0.0, the “Edema score, Average” value (NZW Rabbit skins; [6]) was 0 and the “Edema score, Sum” value (NZW Rabbit skins; [6]) was 0. For the same compound, the “Erythema & Eschar score, Average” value (NZW Rabbit skins; [6]) was 0, the “Erythema & Eschar score, Sum” value (NZW Rabbit skins; [6]) was 0 and the “Erythema & Eschar score” value (NZW Rabbit skins; test sites, intact skin, 24 hour, per animal) was 0. For the same compound, the “Edema score, Average” value (NZW Rabbit skins; [7]) was 0, the “Edema score, Sum” value (NZW Rabbit skins; [7]) was 0 and the “Erythema & Eschar score, Average” value (NZW Rabbit skins; [7]) was 0. For the same compound, the “Erythema & Eschar score, Sum” value (NZW Rabbit skins; [7]) was 0 and the “Erythema & Eschar score” value (NZW Rabbit skins; test sites, intact skin, 72 hour, per animal) was 0.
